Values joined by “and” are separate entries in the source; they are usually repeats but may differ in a detail not shown here. Equal entries are not always repeated.
System: A2780 ovarian carcinoma cells
Assay: Phosphatidylserine exposure assay (FITC-Annexin V / propidium iodide, flow cytometry)
Format: cell-based
Procedure: • Figure 1 represents the chemical structure of ingrilimine according to compound (Illa) formula. • Figure 2 represents the cytotoxic activity of ingrilimine. A2780 ovarian and HT29 colorectal carcinoma cells were grown in RPMI 1640 supplemented with 10% fetal calf serum (FCS) and 1% glutamine. U87-MG glioblastoma cells were grown in Dulbecco minimal essential medium containing 4.5 g/L glucose, 10% FCS and 1% glutamine at 37 °C in a humidified atmosphere containing 5% CO2. For IC50 determination, the cells were seeded in 96-well plates (3 × 10^3 cells/well) containing 90 µL of growth medium. After 24 h of culture, the cells were treated with ingrilimine at 10 different final concentrations. Cell viability was determined by luminescence after 72 h incubation. (a) Effect of ingrilimine on A2780 ovarian carcinoma cells. (b) Effect of ingrilimine on U87-MG glioblastoma cells. (c) Effect of ingrilimine on U87-MG glioblastoma cells • Figure 3a-3f represent the mitochondrial dysfunction provoked by ingrilimine. […] Sector Q normal cells that accumulated the JC-1 dye (fluorescence emission 590 nm). […] (a) Non-treated cells incubated with the carrier (DMSO) for 24 h. (b) HCT116 cells incubated with 10 nN ingrilimine for 24 h. (c) HCT116 cells incubated with 250 nM ingrilimine for 24 h. (d) Non-treated cells incubated with the carrier (DMSO) for 48 h. (e) HCT116 cells incubated with 10 nN ingrilimine for 48 h. (f) HCT116 cells incubated with 250 nM ingrilimine for 48. Changes in fluorescence emission were recorded by flow cytometry using the JC-1 mithocondrial membrane potential-dependent fluorescent dye. NT = non-treated cells; IngX = ingrilimine. • Figure 4a-4f represents phosphatidylserine exposure provoked by ingrilimine. […] Quadrants D1 and D2 with dead or necrotic cells, quadrant D3 with normal cells and quadrant D4 with apoptotic cells following phosphatidylserine exposure. (a) Non-treated A2780 cells incubated with the carrier (DMSO) for 24h. (b) A2780 cells incubated with 10 nM ingrilimine for 24 h. (c) A2780 cells incubated with 250 nM ingrilimine for 24 h. (d) Non-treated A2780 cells incubated with the carrier (DMSO) for 48 h. (e) A2780 cells incubated with 10 nM ingrilimine for 48 h. (f) A2780 cells incubated with 250 nM ingrilimine for 48. […] exposure in A2780 cell was quantified by flow cytometry using FITC-Annexin V. Dead or necrotic cells were detected using the vital dye propridium iodide. NT = non-treated cells; IngX = ingrilimine. • Figure 5 represents the antagonistic activity of ingrilimine (named "IngX" in the figure) and portimine (named "Port A" in the figure) against nicotinic acetylcholine receptors recorded by two-electrodes voltage clamp electrophysiology on Xenopus laevis oocytes. Clamped Xenopus laevis oocytes having incorporated the muscle (α1)2βγδ nAChR subtype from Torpedo marmorata (filled squares), or expressing the neuronal α3β2 nAChR subtype from rat (filled triangles), or expressing the human neuronal α7 nAChR subtype (filled circles) were exposed to portimine (100 nM - 1 mM) for 45 seconds. […] A Xenopus laevis oocyte expressing the human α7 nAChR subtype was exposed to 100 µM acetylcholine triggering the immediate opening of the receptor's channel (black bold line) followed by the very-fast closure of the channel ([…]) that became insensitive to acetylcholine during the rest of the 5 seconds exposure (desensitization). When a Xenopus laevis oocyte expressing the human α7 nAChR subtype was exposed first to 10 nM ingrilimine for 45 seconds and then to a mixture (Mix) containing 10 nM ingrilimine and 100 µM acetylcholine, the receptor's channel was closed denoting a strong antagonistic activity of the tested toxin against the α7 nAChR subtype (dotted line). […]

## C=CC1=C[C@@H]2C[C@@H](O)[C@@H](O)/C(C)=C/C/C(C)=C/CCC3=NCCC[C@]32CC1 [Ingrilimine, ingrilimine]
10 nM, 24 h
  Annexin V+/IP: 1.1%
10 nM, 48 h
  Annexin V+/IP: 0.8%
50 nM, 24 h
  Annexin V+/IP: 3.4%
50 nM, 48 h
  Annexin V+/IP: 10%
100 nM, 24 h
  Annexin V+/IP: 9.8%
100 nM, 48 h
  Annexin V+/IP: 20.4%
250 nM, 24 h
  Annexin V+/IP: 13.1%
250 nM, 24 h, listed as ingrilimine
  Annexin V+/IP: -13%
250 nM, 24 h, quadrant D2, late stage apoptotic, dead or necrotic cells
  percentage of propidium iodide positive and annexin V positive: 3.8%
250 nM, 48 h
  Annexin V+/IP: 31.3%
250 nM, 48 h, quadrant D2
  percentage of propidium iodide positive and annexin V positive: 17%
500 nM, 24 h
  Annexin V+/IP: 27.1%
Homo sapiens, A2780, 48 h, read-out: viable cells
  viability at 0.25 µM: 45%

## C=CC1=C[C@@H]2[C@@H]3O[C@]4(CC[C@H](O4)[C@@H](C)C[C@@H](O)C3=O)C[C@H](O)C3=NCC[C@@]32CC1 [Portimine-A]
1 nM, 24 h, early apoptotic cells (annexin V positive, propidium iodide negative)
  Annexin V+/IP: 3.4%
1 nM, 48 h
  Annexin V+/IP: 1.7%
5 nM, 24 h
  Annexin V+/IP: 6.4%
5 nM, 48 h
  Annexin V+/IP: 18.4%
10 nM, 24 h
  Annexin V+/IP: 13.1%
10 nM, 48 h
  Annexin V+/IP: 24.1%
20 nM, 24 h
  Annexin V+/IP: 13%
  percentage of late-stage apoptotic cells and or necrotic cells: 4.3%
20 nM, 48 h
  percentage of late-stage apoptotic cells and or necrotic cells: 15%
20 nM, 48 h, listed as Portimine
  Annexin V+/IP: 39% and 39.3%
50 nM, 24 h
  Annexin V+/IP: 22.8%
50 nM, 48 h treatment, quadrant D3
  viable cells: 40%
